Assay results as given in US20230279341A1, “NOVEL FAECALIBACTERIUM PRAUSNITZII STRAIN EB-FPDK9 AND USE THEREOF” (ENTEROBIOME INC., priority 2020, published 2023).
Converted amounts (≈) assume the structure as drawn.

Tests used:
Format in all cases: cell-based
[1] = system: Faecalibacterium prausnitzii DSM 17677^T; assay: MIC, liquid medium microdilution method (CLSI), standard strain
[2] = system: Faecalibacterium prausnitzii EB-FPDK9 strain; assay: MIC, liquid medium microdilution method (CLSI), EB-FPDK9 strain; details: for Resistance or susceptibility of the EB-FPDK9 strain to the antimicrobial agent, in words: text summary of Table 4
[3] = system: Bacteroides thetiotaomicron ATCC 29741; assay: MIC, liquid medium microdilution method (CLSI), QC strain

CCC[C@@H]1C[C@@H](C(=O)N[C@@H]([C@H]2O[C@H](SC)[C@H](O)[C@@H](O)[C@H]2O)[C@H](C)Cl)N(C)C1 [CLI, clindamycin]
Susceptibility class (S/I/R), DSM 17677^T ([1]; CLI breakpoints): S (≤2) | Susceptibility class (S/I/R), EB-FPDK9 ([2]; CLI breakpoints): S (≤2)

CO/N=C(\C(=O)N[C@@H]1C(=O)N2C(C(=O)O)=CCS[C@H]12)c1csc(N)n1 [CTZ, ceftizoxime]
Susceptibility class (S/I/R), DSM 17677^T ([1]; CTZ breakpoints): I (64) | Susceptibility class (S/I/R), EB-FPDK9 ([2]; CTZ breakpoints): R (≥128) | Resistance or susceptibility of the EB-FPDK9 strain to the antimicrobial agent, in words [2]: resistance

Piperacillin-tazobactam [PTZ]
MIC, test strain DSM 17677^T ([1]; F. prausnitzii DSM 17677^T): 256/4 | Susceptibility class (S/I/R), DSM 17677^T ([1]; PTZ breakpoints): R (≥128/4) | MIC, QC ATCC 29741 ([3]; Bacteroides thetiotaomicron ATCC 29741): 8/4 | MIC, test strain EB-FPDK9 ([2]; F. prausnitzii EB-FPDK9): 32/4 | Susceptibility class (S/I/R), EB-FPDK9 ([2]; PTZ breakpoints): S (≤32/4) | Resistance or susceptibility of the EB-FPDK9 strain to the antimicrobial agent, in words [2]: susceptibility

Cc1ncc([N+](=O)[O-])n1CCO [MTZ, metronidazole]
Susceptibility class (S/I/R), DSM 17677^T ([1]; MTZ breakpoints): S (≤8) | Susceptibility class (S/I/R), EB-FPDK9 ([2]; MTZ breakpoints): S (≤8) | Resistance or susceptibility of the EB-FPDK9 strain to the antimicrobial agent, in words [2]: susceptibility

O=C(N[C@H](CO)[C@H](O)c1ccc([N+](=O)[O-])cc1)C(Cl)Cl [CHL, chloramphenicol]
Susceptibility class (S/I/R), DSM 17677^T ([1]; CHL breakpoints): R (≥32) | Susceptibility class (S/I/R), EB-FPDK9 ([2]; CHL breakpoints): R (≥32) | Resistance or susceptibility of the EB-FPDK9 strain to the antimicrobial agent, in words [2]: resistance

C[C@@H](O)[C@H]1C(=O)N2C(C(=O)O)=C(S[C@@H]3CN[C@H](C(=O)N(C)C)C3)[C@H](C)[C@H]12 [MEM, meropenem]
Susceptibility class (S/I/R), DSM 17677^T ([1]; MEM breakpoints): R (≥16) | MIC ([3]; Bacteroides, ATCC29741, read-out: MIC, QC ATCC 29741): 0.5 µg/mL (≈ 1.3 µM) | Susceptibility class (S/I/R), EB-FPDK9 ([2]; MEM breakpoints): R (≥16) | Resistance or susceptibility of the EB-FPDK9 strain to the antimicrobial agent, in words [2]: resistance

COc1c(N2C[C@@H]3CCCN[C@@H]3C2)c(F)cc2c(=O)c(C(=O)O)cn(C3CC3)c12 [MXF, moxifloxacin]
Susceptibility class (S/I/R), DSM 17677^T ([1]; MXF breakpoints): R (≥8) | Susceptibility class (S/I/R), EB-FPDK9 ([2]; MXF breakpoints): R (≥8)
